# From patent US10918610B2, “Compounds and methods of promoting myelination” (Case Western Reserve University, priority 2017, dated 2021)
# What was measured:
# corpus callosum = assay: LPC-induced demyelination in corpus callosum, DTI-MRI fractional anisotropy; assay type: in vivo, Sprague-Dawley male rats; conditions: rats, 20 mg/kg intraperitoneal QD
# Method: In total, 30 Sprague-Dawley male rats (˜200-300 g) were infused with lysophosphatidylcholine (LPC) on the ipsilateral side and with vehicle for LPC on the contralateral side of the corpus callosum in order to induce demyelination. […] Cis-N-cyclohexyl-N-ethyl-3-(3-chloro-4-cyclohexylphenyl)prop-2-enylamine was diluted to a final concentration of 2.5% ETOH and 2.5% Kolliphor in Saline. DTI-MRI was used as a primary method to quantify the demyelinated lesion and to assess the organization of white matter in corpus callosum over time, on days 3, 10 and 15. Day 3 served as a baseline followed by repeated analyses during the therapeutic period. On day 15, the animals were euthanized and tissue samples collected. The amount of demyelination and the extent of neuronal loss were analyzed by histological analysis of MBP and Nissl substance, respectively, in corpus callosum.
# Demyelination in corpus callosum was induced by stereotactic infusion of lysophospatidylcholine (LPC, Santa Cruz, Calif., USA) directly to the target tissue. First, rats were anesthetized with 5% isoflurane (in 70% N20 and 30% 02; flow 300 ml/min) and placed in a stereotactic frame. […]
# Analgesics were administered during and after the surgery. […] Rats were carefully monitored by laboratory personnel twice a day and any rats prematurely fulfilling the criteria for humane end-points were euthanized during the study. […]
# EpiSC-derived OPCs = assay: Oligodendrocyte formation and myelin sheaths on electrospun microfibers; assay type: cell-based, mouse; conditions: 100 nM, versus untreated OPCs; microscopic images
# Method: A 12-well plate containing Mimetex aligned scaffold (microfiber plate, AMSBIO, AMS.TECL-006-1X, Electrospun poly-L-lactide Scaffold, […] fibre diameter cell crown inserts) was prepared as previously described. Briefly, inserts were sterilized with 70% ethanol and washed with PBS before being coated with polyornithine and laminin. After laminin coating, 100,000 cells/mL of EpiSC-derived OPCs were plated in differentiation medium. After 24 h the media was replaced with fresh media containing small molecule treatments. […] Plates were fixed with 4% PFA, permeabilized with 0.1% Triton X-100, and blocked with 10% donkey serum (v/v) in PBS for 60 min. Plates were stained for MBP (Abcam, ab7349; 1:100) and DAPI staining (Sigma; 5 μg/ml). After staining, the inserts were moved into new 12-well plate and covered with 2 mL of PBS before imaging in Operetta high content Imaging and analysis system. Plates were imaged on the Operetta High Content Imaging and Analysis system (PerkinElmer) and a set of 8 fields captured from each well resulting in an average of 45,000 cells being scored per well. Analysis (PerkinElmer Harmony and Columbus software) identified intact nuclei stained by DAPI and calculated the MBP signal intensity per cell per well. Microfiber insert tracking images were taken using a Leica DMi8 with a 20× Dry/NA 0.40 objective. […]
structure (smiles),measurement,setting,value
CCN(C/C=C\c1ccc(C2CCCCC2)c(Cl)c1)C1CCCCC1 [Cis-N-cyclohexyl-N-ethyl-3-(3-chloro-4-cyclohexylphenyl)prop-2-enylamine],"ipsilateral FA measurements, difference between the groups at Day 15",corpus callosum; Day 15,trend in improvement
same,fractional anisotropy (FA) value of the ipsilateral side (FIG. 8B),"corpus callosum; days 3-15 after LPC infusion, versus vehicle",noticeable recovery of the FA value
same,amount of myelin sheaths formed on electrospun poly-L-lactide scaffold microfibers,EpiSC-derived OPCs,significant increase in the amount of myelin sheaths
